Where two headings read alike, the source gives them in different places. Marks after values point to notes of the source that are not given here.
Tested on: MCF-7 breast cancer cells transfected with the human aromatase gene
Details: for Mean % Inhibition of Tumor Size vs Vehicle at Day 42 / Mean Tumor Size at Day 98 / Mice cured / Mice dead / Mice with Escape to 500 mm^3 / Percent of mice with cures: letrazole only
Description: The relative effects of the aromatase inhibitor agent letrozole and a test compound of the present invention were evaluated, when administered alone or in combination, on the in vivo growth of MCF-7 breast cancer cells transfected with the human aromatase gene.
In this study, cells (7.0×10^6 cells/mouse) were implanted subcutaneously in female ovariectomized athymic nude mice (n=10). Androstenedione was administered (via slow-release pellets) as a source of […].
The daily dose was administered in a target volume of 0.1 mL, which was adjusted according to subject weight. The oral vehicle was L21 (a mixture of 35% Labrasol, 35% Labrafac, and 30% Solutol). Individual vehicle-treated mice were removed from study when the tumor reached 1500 mm^3. After 100 days of treatment, treatment was stopped.

[1] = 10 μg/mouse orally once per day
[2] = 30 μg/mouse orally once per day

SMILES: N#Cc1ccc(C(c2ccc(C#N)cc2)n2cncn2)cc1 [letrozole]
- Mean % Inhibition of Tumor Size vs Vehicle at Day 42 [1]: 72%
- Mean Tumor Size at Day 98 [1]: 225 mm^3
- Mice cured [1]: 0 of 9
- Mice dead [1]: 1
- Mice with Escape to 500 mm^3 [1]: 2
- Percent of mice with cures [1]: 0% cured
- Mean % Inhibition of Tumor Size vs Vehicle at Day 42 [2]: 91%**
- Mean Tumor Size at Day 98 [2]: 146 mm^3
- Mice cured [2]: 2 of 9
- Mice dead [2]: 1
- Mice with Escape to 500 mm^3 [2]: 0
- Percent of mice with cures [2]: 22% cured
- Effect on tumor growth (letrozole (10 μg/mouse) alone): the tumors did not regress, tumor growth was prevented
- Effect on tumor growth (letrozole (30 μg/mouse) alone): the tumors regressed
- Mice with cures (no measurable tumor) at Day 100 (letrozole (30 μg/mouse) alone): two of the nine

Source: patent US20100158858A1, “ADMINISTRATION OF CARBOLINE DERIVATIVES USEFUL IN THE TREATMENT OF CANCER AND OTHER DISEASES” (priority 2007, published 2010)
